Reference: patent publication US9963442B2, “Pyridones as herbicides” (E I DU PONT DE NEMOURS AND COMPANY, priority 2014, dated 2018)

Columns and labels:
Assay type in all cases: in vivo
[1] = test system: Italian ryegrass (Lolium multiflorum); assay: Test A preemergence, directed soil spray; details: approx. 10 days
Source text: (§1) Seeds of plant species selected from barnyardgrass (Echinochloa crus-galli), kochia (Kochia scoparia), ragweed (common ragweed, Ambrosia elatior), Italian ryegrass (Lolium multiflorum), giant foxtail (Setaria faberii), and pigweed (Amaranthus retroflexus) were planted into a blend of loam soil and sand and treated preemergence with a directed soil spray using test chemicals formulated in a non-phytotoxic solvent mixture which included a surfactant. At the same time, plants selected from these weed species and also wheat (Triticum aestivum), corn (Zea mays), blackgrass (Alopecurus myosuroides), and galium (catchweed bedstraw, Galium aparine) were planted in pots containing the same blend of loam soil and sand and treated with postemergence applications of test chemicals formulated in the same manner. Plants ranged in height from 2 to 10 cm and were in the one- to two-leaf stage for the postemergence treatment. Treated plants and untreated controls were maintained in a greenhouse for approximately 10 days, after which time all treated plants were compared to untreated controls and visually evaluated for injury. Plant response ratings, summarized in Table A, are based on a 0 to 100 scale where 0 is no effect and 100 is complete control. A dash (-) response means no test result.

[2] = test system: barnyardgrass (Echinochloa crus-galli); assay: Test A preemergence, directed soil spray; details: approx. 10 days
Source text: as §1

[3] = test system: giant foxtail (Setaria faberii); assay: Test A preemergence, directed soil spray; details: approx. 10 days
Source text: as §1

kochia (Kochia scoparia) [4] = assay: Test A preemergence, directed soil spray; details: approx. 10 days
Source text: as §1

[5] = test system: pigweed (Amaranthus retroflexus); assay: Test A preemergence, directed soil spray; details: approx. 10 days
Source text: as §1

[6] = test system: ragweed (common ragweed, Ambrosia elatior); assay: Test A preemergence, directed soil spray; details: approx. 10 days
Source text: as §1

[7] = test system: Italian ryegrass (Lolium multiflorum); assay: Test C postemergence; details: scale 0 to 100, 0 is no effect, 100 is complete control
Source text: (§2) Seeds of plant species selected from blackgrass (Alopecurus myosuroides), Italian ryegrass (Lolium multiflorum), winter wheat (Triticum aestivum), galium (catchweed bedstraw, Galium aparine), corn (Zea mays), large (Lg) crabgrass (Digitaria sanguinalis), giant foxtail (Setaria faberii), johnsongrass (Sorghum halepense), lambsquarters (Chenopodium album), morningglory (Ipomoea coccinea), yellow nutsedge (Cyperus esculentus), pigweed (Amaranthus retroflexus), ragweed (common ragweed, Ambrosia elatior), soybean (Glycine max), barnyardgrass (Echinochloa crus-galli), oilseed rape (Brassica napus), waterhemp (common waterhemp, Amaranthus rudis), and velvetleaf (Abutilon theophrasti) were planted into a blend of loam soil and sand and treated preemergence with test chemicals formulated in a non-phytotoxic solvent mixture which included a surfactant. At the same time, plants selected from these crop and weed species and also chickweed (common chickweed, Stellaria media), kochia (Kochia scoparia), and wild oat (Avena fatua), were planted in pots containing Sunshine Redi-Earth® planting medium comprising spaghnum peat moss, vermiculite, starter nutrients and dolomitic limestone and treated with postemergence applications of test chemicals formulated in the same manner. Plants ranged in height from 2 to 18 cm (1- to 4-leaf stage) for postemergence treatments. Treated plants and controls were maintained in a greenhouse for 13 to 15 days, after which time all species were compared to controls and visually evaluated. Plant response ratings, summarized in Table C, are based on a scale of 0 to 100 where 0 is no effect and 100 is complete control. A dash (-) response means no test result.

[8] = test system: barnyardgrass (Echinochloa crus-galli); assay: Test C postemergence; details: scale 0 to 100, 0 is no effect, 100 is complete control
Source text: as §2

[9] = test system: blackgrass (Alopecurus myosuroides); assay: Test C postemergence; details: scale 0 to 100, 0 is no effect, 100 is complete control
Source text: as §2

[10] = test system: chickweed (common chickweed, Stellaria media); assay: Test C postemergence; details: scale 0 to 100, 0 is no effect, 100 is complete control
Source text: as §2

corn (Zea mays) = assay: Test C postemergence; details: scale 0 to 100, 0 is no effect, 100 is complete control
Source text: as §2

[11] = test system: giant foxtail (Setaria faberii); assay: Test C postemergence; details: scale 0 to 100, 0 is no effect, 100 is complete control
Source text: as §2

kochia (Kochia scoparia) [12] = assay: Test C postemergence; details: scale 0 to 100, 0 is no effect, 100 is complete control
Source text: as §2

[13] = test system: morningglory (Ipomoea coccinea); assay: Test C postemergence; details: scale 0 to 100, 0 is no effect, 100 is complete control
Source text: as §2

[14] = test system: oilseed rape (Brassica napus); assay: Test C postemergence; details: scale 0 to 100, 0 is no effect, 100 is complete control
Source text: as §2

[15] = test system: pigweed (Amaranthus retroflexus); assay: Test C postemergence; details: scale 0 to 100, 0 is no effect, 100 is complete control
Source text: as §2

[16] = test system: velvetleaf (Abutilon theophrasti); assay: Test C postemergence; details: scale 0 to 100, 0 is no effect, 100 is complete control
Source text: as §2

[17] = test system: waterhemp (common waterhemp, Amaranthus rudis); assay: Test C postemergence; details: scale 0 to 100, 0 is no effect, 100 is complete control
Source text: as §2

wild oat (Avena fatua) = assay: Test C postemergence; details: scale 0 to 100, 0 is no effect, 100 is complete control
Source text: as §2

[18] = test system: winter wheat (Triticum aestivum); assay: Test C postemergence; details: scale 0 to 100, 0 is no effect, 100 is complete control
Source text: as §2

[19] = test system: yellow nutsedge (Cyperus esculentus); assay: Test C postemergence; details: scale 0 to 100, 0 is no effect, 100 is complete control
Source text: as §2

O=c1cccc(Oc2ncc(Cl)cn2)n1-c1ncc(Cl)cn1 [Compound 6]
85: Plant response rating, Kochia (kochia (Kochia scoparia) [12]; 125 g ai/ha) | Plant response rating, Pigweed ([15]; 125 g ai/ha)
20: Plant response rating (0 to 100 scale, 0 no effect, 100 complete control), Barnyardgrass ([2]; 31 g ai/ha) | Plant response rating, Corn (corn (Zea mays); 125 g ai/ha) | Plant response rating, Oilseed Rape ([14]; 62 g ai/ha)
0: Plant response rating (0 to 100 scale, 0 no effect, 100 complete control), Ryegrass, Italian ([1]; 31 g ai/ha) | Plant response rating, Ryegrass, Italian ([7]; 16 g ai/ha) | Plant response rating, Ryegrass, Italian ([7]; 31 g ai/ha) | Plant response rating, Ryegrass, Italian ([7]; 62 g ai/ha) | Plant response rating, Ryegrass, Italian ([7]; 125 g ai/ha) | Plant response rating, Blackgrass ([9]; 16 g ai/ha) | Plant response rating, Blackgrass ([9]; 31 g ai/ha) | Plant response rating, Oat, Wild (wild oat (Avena fatua); 16 g ai/ha) | Plant response rating, Oat, Wild (wild oat (Avena fatua); 31 g ai/ha) | Plant response rating, Oat, Wild (wild oat (Avena fatua); 62 g ai/ha) | Plant response rating, Oat, Wild (wild oat (Avena fatua); 125 g ai/ha) | Plant response rating, Wheat ([18]; 16 g ai/ha) | Plant response rating, Wheat ([18]; 31 g ai/ha) | Plant response rating, Wheat ([18]; 62 g ai/ha) | Plant response rating, Wheat ([18]; 125 g ai/ha) | Plant response rating, Nutsedge, Yellow ([19]; 16 g ai/ha)
55: Plant response rating, Chickweed ([10]; 31 g ai/ha) | Plant response rating, Chickweed ([10]; 125 g ai/ha)
75: Plant response rating, Morningglory ([13]; 31 g ai/ha) | Plant response rating, Pigweed ([15]; 62 g ai/ha) | Plant response rating, Velvetleaf ([16]; 62 g ai/ha) | Plant response rating, Velvetleaf ([16]; 125 g ai/ha) | Plant response rating, Waterhemp ([17]; 31 g ai/ha)
80: Plant response rating (0 to 100 scale, 0 no effect, 100 complete control), Pigweed ([5]; 31 g ai/ha) | Plant response rating (0 to 100 scale, 0 no effect, 100 complete control), Ragweed ([6]; 125 g ai/ha) | Plant response rating, Kochia (kochia (Kochia scoparia) [12]; 62 g ai/ha) | Plant response rating, Morningglory ([13]; 125 g ai/ha)
50: Plant response rating, Chickweed ([10]; 16 g ai/ha) | Plant response rating, Kochia (kochia (Kochia scoparia) [12]; 16 g ai/ha) | Plant response rating, Morningglory ([13]; 16 g ai/ha) | Plant response rating, Velvetleaf ([16]; 16 g ai/ha)
100: Plant response rating (0 to 100 scale, 0 no effect, 100 complete control), Foxtail, Giant ([3]; 125 g ai/ha) | Plant response rating (0 to 100 scale, 0 no effect, 100 complete control), Kochia (kochia (Kochia scoparia) [4]; 125 g ai/ha) | Plant response rating (0 to 100 scale, 0 no effect, 100 complete control), Pigweed ([5]; 125 g ai/ha)
10: Plant response rating (0 to 100 scale, 0 no effect, 100 complete control), Ryegrass, Italian ([1]; 125 g ai/ha) | Plant response rating, Barnyardgrass ([8]; 125 g ai/ha) | Plant response rating, Corn (corn (Zea mays); 31 g ai/ha) | Plant response rating, Corn (corn (Zea mays); 62 g ai/ha) | Plant response rating, Foxtail, Giant ([11]; 125 g ai/ha) | Plant response rating, Oilseed Rape ([14]; 125 g ai/ha)
15: Plant response rating, Oilseed Rape ([14]; 31 g ai/ha)
60: Plant response rating (0 to 100 scale, 0 no effect, 100 complete control), Foxtail, Giant ([3]; 31 g ai/ha) | Plant response rating (0 to 100 scale, 0 no effect, 100 complete control), Kochia (kochia (Kochia scoparia) [4]; 31 g ai/ha) | Plant response rating, Chickweed ([10]; 62 g ai/ha) | Plant response rating, Kochia (kochia (Kochia scoparia) [12]; 31 g ai/ha) | Plant response rating, Waterhemp ([17]; 16 g ai/ha)
5: Plant response rating, Barnyardgrass ([8]; 16 g ai/ha) | Plant response rating, Barnyardgrass ([8]; 31 g ai/ha) | Plant response rating, Barnyardgrass ([8]; 62 g ai/ha) | Plant response rating, Blackgrass ([9]; 62 g ai/ha) | Plant response rating, Blackgrass ([9]; 125 g ai/ha) | Plant response rating, Corn (corn (Zea mays); 16 g ai/ha) | Plant response rating, Foxtail, Giant ([11]; 16 g ai/ha) | Plant response rating, Foxtail, Giant ([11]; 31 g ai/ha) | Plant response rating, Foxtail, Giant ([11]; 62 g ai/ha) | Plant response rating, Oilseed Rape ([14]; 16 g ai/ha) | Plant response rating, Nutsedge, Yellow ([19]; 31 g ai/ha) | Plant response rating, Nutsedge, Yellow ([19]; 62 g ai/ha) | Plant response rating, Nutsedge, Yellow ([19]; 125 g ai/ha)
65: Plant response rating, Morningglory ([13]; 62 g ai/ha) | Plant response rating, Velvetleaf ([16]; 31 g ai/ha)
70: Plant response rating (0 to 100 scale, 0 no effect, 100 complete control), Barnyardgrass ([2]; 125 g ai/ha) | Plant response rating (0 to 100 scale, 0 no effect, 100 complete control), Ragweed ([6]; 31 g ai/ha) | Plant response rating, Pigweed ([15]; 16 g ai/ha) | Plant response rating, Pigweed ([15]; 31 g ai/ha) | Plant response rating, Waterhemp ([17]; 62 g ai/ha) | Plant response rating, Waterhemp ([17]; 125 g ai/ha)
